Data set [1] in a line: Phase 1 single escalating intravenous dose study, safety and pharmacokinetics. The data set is classed as in vivo, human. As to conditions: for C5 / concentration at 5 min: concentration at 5 minutes; for concentration at 5 min: male, human, whole blood, read-out: C5. As to the method: In the present, first-time-in-man study, the safety and pharmacokinetics of zotarolimus were investigated following intravenous bolus administration of zotarolimus over a 100 to 900 μg dose range. The intravenous bolus dose administration would mimic the most rapid unexpected release of zotarolimus from drug-coated stents in vivo.
This was a Phase 1, single escalating dose, double-blind, randomized, placebo-controlled, single-center study. Sixty (60) adult healthy males were divided into 5 IV dose groups of 100, 300, 500, 700, and 900 μg.
Subjects were randomly assigned to receive a single intravenous dose of zotarolimus or a matching intravenous placebo under fasting conditions, as shown in the dosing scheme shown in Table 9.
Higher doses were administered after evaluating the safety data from the preceding lower dose groups. The treatment groups were separated by at least 7 days. For safety reasons, each treatment group was divided into two cohorts of six subjects and the doses of the two cohorts of a group were separated by at least 1 day.
Doses were administered as IV bolus over 3 minutes, with 8 subjects. Four subjects received zotarolimus and 4 subjects received placebo in each dose group. Blood was sampled for 168 hours and concentrations of zotarolimus measured using LC-MS/MS with a LOQ of 0.20 ng/mL
Seven (7)-mL blood samples were collected by venipuncture into evacuated collection tubes including edetic acid (EDTA) prior to dosing (0 hour) and at 0.083 (5 min), 0.25, 0.5, 1, 2, 4, 8, 12, 16, 24, 36, 48, 72, 96, 120, 144, and 168 hours after dosing on Study Day 1.
Blood concentrations of zotarolimus were determined using a validated liquid/liquid extraction HPLC tandem mass spectrometric method LC-MS/MS). […] AU calibration curves had coefficient of determination (r^2) values greater than or equal to 0.9923.
Safety was evaluated based on adverse event, physical examination, vital signs, ECG, injection site and laboratory tests assessments.
Pharmacokinetic parameter values of zotarolimus were estimated using noncompartmental methods.
To investigate the questions of dose proportionality and linear pharmacokinetics, an analysis of covariance (ANCOVA) was performed. Subjects were classified by dose level, and body weight was a covariate. The variables analyzed included β, Vdβ, dose-normalized C5, and logarithms of dose-normalized AUC0-last and dose-normalized AUC0-inf. The primary test of the hypothesis of invariance with dose was a test on dose-level effects with good power for a monotonic function of dose. In addition, the highest and lowest dose levels were compared within the framework of the ANCOVA.

Data set [2] has as its system human coronary artery smooth muscle cells (hCaSMC). Briefly: 3H-thymidine uptake proliferation assay, hCaSMC. The class given is cell-based. As to conditions: Homo sapiens, 3 h; read-out: hCaSMC IC50 Mean ± SEM. Here is the method:
Experiments were performed to investigate interactions between zotarolimus and the corticosteroid dexamethasone. The effect of dexamethasone on the antiproliferative activity of zotarolimus in human coronary artery smooth muscle ([…]) and endothelial […] determined using an in vitro proliferation assay. The proliferation and migration of vascular smooth muscle cells into the vascular neointima is a characteristic pathologic response seen in restenotic lesions (A. Lafont and P. Libby, The smooth muscle cell: sinner or saint in restenosis and the acute coronary syndromes? […] As a result, in vitro assays which specifically measure the antiproliferative activity of candidate anti-restenotic compounds on human coronary artery smooth muscle and endothelial cells should predict potential anti-restenotic activity in vivo. The tritium incorporation assay is an accurate and sensitive method used in the art to determine cell number and proliferation. Compounds or combinations of compounds which attenuate growth factor-mediated human coronary artery smooth muscle cell […]) proliferation, as measured by the tritium incorporation assay in vitro, are candidate anti-restenotic agents. […] Cell proliferation was monitored by following incorporation of ^3H-thymidine into newly synthesized DNA of cells stimulated by serum and growth factors. Exponentially growing […] were seeded into 96-well flat bottom tissue culture plates at 5,000 cells/well (10,000 cells/well for […]). The cells were allowed to attach overnight. The growth medium was removed the following day and cells were washed twice with unsupplemented (basal) medium to remove traces of serum and growth factors. Basal medium (200 μl) was added to each well and the cells incubated in medium lacking growth factors and serum to starve and synchronize them in the G0 state. After starvation (48 hours for […] and 39 hours for […]) in medium lacking serum and growth factors, the cells were replenished with 200 μl supplemented medium in the absence or presence of drugs at the desired concentrations. […] After a 72-hour incubation period, 25 μl (1 μCi/well) of ^3H-thymidine (Amersham Biosciences) were added to each well. The cells were incubated at 37° C. for 16-18 hours to allow incorporation of ^3H-thymidine into newly synthesized DNA and the cells harvested onto 96-well plates containing bonded glass fiber filters using a cell harvester (Harvester 9600, TOMTEC). […] Controls included medium only, starved cells and cells in complete medium. Drug activity was established by determining the inhibition of ^3H-thymidine incorporation into newly synthesized DNA relative to cells grown in complete medium. […] The final IC50s are means of the 3-4 experiments. In these experiments, the x-axis represents the concentration of the drug being varied. For most of these curves that is zotarolimus alone and in combination with a fixed concentration of dexamethasone. Each graph contains a dexamethasone alone curve and a zotarolimus alone curve. The set of curves in each graph is generated by adding dexamethasone at a fixed concentration (1, 5, 10 or 25 nM) to various concentrations of zotarolimus (0, 0.04, 0.08, 0.8, 4, 8, 40 nM). Each curve represents the dose-response of zotarolimus (whose concentration is given on the x-axis) in the presence of the fixed concentration of dexamethasone given in the legend). […] The concentration eliciting a specific antiproliferative effect was determined using a 4-parameter equation (Equation 1). […]

Setting [3] is: 100 μg single IV bolus, healthy males, blood.
Where [4] appears, read: 300 μg single IV bolus, healthy males, blood.
[5] abbreviates: 500 μg single IV bolus, healthy males, blood.
Setting [6] is: 700 μg single IV bolus, healthy males, blood.
Where [7] appears, read: 900 μg single IV bolus, healthy males, blood.

What is called IC50 is the midpoint of a concentration-inhibition curve.

Like-named read-outs stand apart in the source and are kept apart here.

For the compound `CO[C@H]1C[C@@H]2CC[C@@H](C)[C@@](O)(O2)C(=O)C(=O)N2CCCC[C@H]2C(=O)O[C@H]([C@H](C)C[C@@H]2CC[C@H](n3cnnn3)[C@H](OC)C2)CC(=O)[C@H](C)/C=C(\C)[C@@H](O)[C@@H](OC)C(=O)[C@H](C)C[C@H](C)/C=C/C=C/C=C/1C` [zotarolimus], in data set [1] (setting [3]), the C5 was found to be 13.48 ng/mL and the concentration at 5 min was found to be 13.5 ± 2.87 ng/mL. In data set [1] (setting [4]), the C5 is given as 36.71 ng/mL and the concentration at 5 min came to 36.7 ± 9.82 ng/mL. For the same compound, in data set [1] (setting [5]), the C5/Dose amounted to 0.11 ± 0.0005 ng/mL/µg and the “β (elimination rate constant)” value turned out to be 0.017 ± 0.003 h⁻¹. In data set [1] (setting [6]), the CL came to 3.18 L/h, the C5 was found to be 88.73 ng/mL and the concentration at 5 min came to 88.7 ± 5 ng/mL. Further, in data set [1] (setting [7]), the C5 came out at 110.78 ng/mL and the concentration at 5 min amounted to 111 ± 15.9 ng/mL. The tolerability entry in data set [1] (single IV doses of 100 to 900 μg, healthy males) is “well tolerated at all doses”. Besides, in data set [1] (single IV doses of 100 to 900 μg, reported by two or more subjects in any one treatment group), the “most common treatment-emergent adverse events” value is “injection site reaction and pain”. Besides, in data set [1] (with respect to C5 and AUC0-inf, IV), the “dose proportionality of pharmacokinetics” value was “dose-proportional over the 100-900 μg dose range”. For the same compound, the IC50 in data set [2] worked out at 6.2 ± 1.2 nM.
